We go through 18 compounds from patent US8686152B2, “4,4-disubstituted piperidine derivatives useful as inhibitors of dipeptidyl peptidase-1 (DPP-1)” (Janssen Pharmaceutica NV, priority 2010, dated 2014).

T1 sequence (P53634 25-463): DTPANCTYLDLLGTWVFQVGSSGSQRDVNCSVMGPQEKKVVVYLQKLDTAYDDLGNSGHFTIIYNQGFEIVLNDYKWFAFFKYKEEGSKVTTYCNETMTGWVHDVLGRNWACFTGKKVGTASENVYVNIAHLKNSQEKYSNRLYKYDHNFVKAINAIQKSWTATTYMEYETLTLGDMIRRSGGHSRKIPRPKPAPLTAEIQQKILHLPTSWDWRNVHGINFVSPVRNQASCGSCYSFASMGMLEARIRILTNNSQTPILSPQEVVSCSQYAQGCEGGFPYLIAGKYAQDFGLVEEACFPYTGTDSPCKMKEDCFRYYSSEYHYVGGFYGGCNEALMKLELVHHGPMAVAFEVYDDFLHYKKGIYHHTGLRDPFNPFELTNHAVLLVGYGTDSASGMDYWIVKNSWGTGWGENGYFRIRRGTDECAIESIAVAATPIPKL

This assay concerns the target T1, recombinant human DPP-1 (Cathepsin C) (Homo sapiens, UniProt P53634).
T1 construct: made in house
Description: DPP-1 Inhibition Assay (In Vitro), fluorogenic substrate GR-AMC. Format: biochemical. To be noted: 0.15 nM DPP-1, 10 uM GR-AMC, pH 7.0, room temperature; average value where tested multiple times. As to the method:
Test compounds were assessed for DPP-1 (Cathepsin C) inhibitory activity using a fluorogenic substrate, GR-AMC (Glycine-Arginine-amino-4-methylcoumarin, Bachem, I-1215). The amount of amino-methylcoumarin released is proportional to the DPP-1 activity, and the reaction is monitored kinetically with a Molecular Devices plate reader using black 96-well plates.
All compounds were tested under room temperature conditions. The assay buffer consisted of 50 mM HEPES, pH 7.0, 100 mM NaCl, 2 mM glutathione (GSH), and 0.002% TWEEN 20. GSH and TWEEN 20 were added to the buffer fresh daily. Just prior to use, an in-house preparation of recombinant human DPP-1 (240 μM stock, MW 49.6 kD) was diluted 600-fold in assay buffer containing fresh 2 mM dithiothreitol (DTT) to activate the enzyme, then diluted into assay buffer (without DTT) 133-fold for a DPP-1 working solution of 3 nM. Test compounds were diluted in DMSO for 20× their final assay concentrations.
Additions to a 96-well black Costar 3915 plates were as follows: 90 μL of 11 μM GR-AMC, 5 μL test compound (followed by mixing), and 5 μL 3 nM DPP-1 to start the reaction. Fluorescent reactions were monitored kinetically at 360 nm excitation, 440 nm emission on a Molecular Devices Spectramax XPS reader. The Softmax Pro software of the reader determined the initial velocity of the selected data (the first 3-5 minutes of the reaction), and the best linear regression fit of the initial kinetic data. Final assay conditions were 0.15 nM DPP-1, 10 uM GR-AMC, 50 mM HEPES, pH 7.0, 100 mM NaCl, 2 mM GSH, 0.002% TWEEN 20, 1 uM DTT, 5.0% DMSO. Initial velocity rates were plotted vs. test compound concentration by use of a four-parameter logistics equation (nonlinear regression, sigmoidal dose-response (variable slope), with fixed Hill (1.0) using GraphPad Prism® software for determination of DPP-1 IC50. Within-run assay coefficient of variation (CV) was generally <10%; between-run CV <20%.
Representative compounds of the present invention were tested according to the procedure as described above, with results as listed in Table 5, below.
Broadly, the IC50 is the point on the concentration scale where inhibition reaches its midpoint. Consider `N[C@@H](Cc1cccs1)C(=O)N1CCC(C(=O)NC2CCOCC2)(c2ccccc2)CC1` [Compound 103], for which the half-inhibitory concentration (IC50) stood at 310 nM.
With `N[C@@H](Cc1cccs1)C(=O)N1CCC(C(=O)NCC2CCOCC2)(c2ccccc2)CC1` [Compound 104] the figure was 76 nM; with `CCSCC[C@H](N)C(=O)N1CCC(Cc2ccc(-c3ccccc3)cc2)(C(=O)NCC2CCCCC2)CC1` [Compound 106], 5600 nM; with `N[C@@H](Cc1ccccc1)C(=O)N1CCC(Cc2ccc(-c3ccccc3)cc2)(C(=O)NCC2CCCCC2)CC1` [Compound 108], roughly 4000 nM.
Take `COC(=O)[C@H]1CC[C@H](CNC(=O)C2(c3ccccc3)CCN(C(=O)[C@@H](N)Cc3cccs3)CC2)CC1` [Compound 110]: the half-inhibitory concentration (IC50) turned out to be 170 nM.
Regarding `N[C@@H](Cc1cccs1)C(=O)N1CCC(C(=O)NC[C@H]2CC[C@H](C(=O)O)CC2)(c2ccccc2)CC1` [Compound 112], the half-maximal inhibitory concentration (IC50) worked out at 200 nM.
Consider `N[C@@H](Cc1cccs1)C(=O)N1CCC(C(=O)NC2=NCCS2)(c2ccccc2)CC1` [Compound 114], for which the IC50 was determined as 220 nM.
With `N[C@@H](Cc1cccs1)C(=O)N1CCC(C(=O)N[C@H]2CC[C@H](C(=O)O)CC2)(c2ccccc2)CC1` [Compound 115] the figure was 200 nM; with `N[C@@H](Cc1cccs1)C(=O)N1CCC(C(=O)N[C@H]2CC[C@H](O)CC2)(c2cc(C(F)(F)F)cc(C(F)(F)F)c2)CC1` [Compound 120], 230 nM; with `N[C@@H](Cc1cccs1)C(=O)N1CCC(Cc2ccncc2)(C(=O)NCC2CCOCC2)CC1` [Compound 121], 130 nM.
Consider `N[C@@H](Cc1cccs1)C(=O)N1CCC(Cc2ccncc2)(C(=O)N2CCOCC2)CC1` [Compound 122], for which the concentration for half-maximal inhibition (IC50) was 1300 nM.
For `N[C@@H](Cc1cccs1)C(=O)N1CCC(Cc2ccc(-c3nnn[nH]3)cc2)(C(=O)NCC2CCCCC2)CC1` [Compound 127] the value was 83 nM.
With `Cc1ccc(C2(C(=O)NCC3CCCCC3)CCN(C(=O)[C@@H](N)Cc3cccs3)CC2)cc1` [Compound 129] the figure was 17 nM; with `Cc1ccc(C2(C(=O)NCC3CCOCC3)CCN(C(=O)[C@@H](N)Cc3cccs3)CC2)cc1` [Compound 130], 41 nM; with `CN(CC1CCCCC1)C(=O)C1(c2ccccc2)CCN(C(=O)[C@@H](N)Cc2cccs2)CC1` [Compound 134], 16 nM.
With `CCC[C@H](N)C(=O)N1CCC(Cc2cccnc2)(C(=O)NCC2CCCCC2)CC1` [Compound 136] the figure was 6500 nM; with `CC[C@H](N)C(=O)N1CCC(C(=O)N(C)C2CCCCC2)(c2ccccc2)CC1` [Compound 138], 1700 nM.
Consider `C[C@@H](O)[C@H](N)C(=O)N1CCC(C(=O)NCC2CCCCC2)(c2ccccc2)CC1` [Compound 139], for which the IC50 is 2600 nM.
